Test results published in ChEMBL document CHEMBL4385604, “Identification of Pyrrolo[2,3- d]pyrimidine-Based Derivatives as Potent and Orally Effective Fms-like Tyrosine Receptor Kinase 3 (FLT3) Inhibitors for Treating Acute Myelogenous Leukemia” (J Med Chem, 2019).
Active and inactive are the calls of the source. The calls are words filed in the database; no cut-off is given here.

Legend:
[1] = molecular target: Receptor-type tyrosine-protein kinase FLT3 (Homo sapiens, UniProt P36888, ITD); assay: Binding affinity to human partial length FLT3 ITD mutant expressed in Escherichia coli measured after 1 hr by qPCR analysis
[2] = Toxicity in NOD/SCID mouse xenografted with human MOLM13 cells at 1 to 10 mg/kg, po qd for 10 days; type: organism-based; settings: in vivo, 240 h
[3] = system: MOLM-13; assay: Induction of apoptosis in human MOLM13 cells assessed as early apoptotic cells at 100 nM after 48 hrs by Annexin V/propidium iodide staining based flow cytometry (reference value: 5.97%); type: functional
[4] = molecular target: Receptor-type tyrosine-protein kinase FLT3 (Homo sapiens) (UniProt P36888); assay: Inhibition of FLT3 autophosphorylation in human MV4-11 cells assessed as ratio of phosphorylated FLT3 to beta-actin level at 100 nM after 2 hrs by Western blot analysis relative to control; type: cell-based
[5] = Plasma clearance in Sprague-Dawley rat at 5 mg/kg, po by LC-MS/MS analysis; type: ADME, organism-based
[6] = molecular target: Receptor-type tyrosine-protein kinase FLT3 (Homo sapiens, UniProt P36888, K663Q); assay: Binding affinity to human partial length FLT3 K663Q mutant (V592 to Y969 residues) expressed in Escherichia coli after 1 hr by qPCR analysis
[7] = system: MV4-11; assay: Cell cycle arrest in human MV4-11 cells assessed as accumulation at S phase at 30 nM after 24 hrs by propidium iodide staining-based flow cytometric analysis (reference value: 30.12%); type: functional
[8] = system: MOLM-13; assay: Induction of apoptosis in human MOLM13 cells assessed as viable cells at 1 uM after 48 hrs by Annexin V/propidium iodide staining based flow cytometry (reference value: 88.2%); type: functional; settings: MOLM-13, 48 h, read-out: Activity
[9] = system: MOLM-13; assay: Cell cycle arrest in human MOLM13 cells assessed as accumulation at G0/G1 phase at 30 nM after 24 hrs by propidium iodide staining-based flow cytometric analysis (reference value: 44.53%); type: functional
[10] = system: MV4-11; assay: Inhibition of MAPK in human MV4-11 cells assessed as ratio of phosphorylated ERK to beta-actin level at 30 nM after 2 hrs by Western blot analysis relative to control; type: cell-based
[11] = system: Receptor-type tyrosine-protein kinase FLT3 (Homo sapiens), P36888 [UNDEFINED MUTATION]; assay: Inhibition of FLT3 ITD mutant in human MV4-11 cells assessed as ratio of phosphorylated STAT5 to beta-actin level at 100 nM after 2 hrs by Western blot analysis relative to control; type: cell-based
[12] = system: Receptor-type tyrosine-protein kinase FLT3 (Homo sapiens), P36888 [UNDEFINED MUTATION]; assay: Inhibition of FLT3 ITD mutant in human MOLM13 cells assessed as ratio of phosphorylated STAT5 to beta-actin level at 30 nM after 2 hrs by Western blot analysis relative to control; type: cell-based
[13] = system: MV4-11; assay: Induction of apoptosis in human MV4-11 cells assessed as necrotic cells at 1 nM after 48 hrs by Annexin V/propidium iodide staining based flow cytometry (reference value: 0.06%); type: functional
[14] = system: MOLM-13; assay: Induction of apoptosis in human MOLM13 cells assessed as necrotic cells at 1 uM after 48 hrs by Annexin V/propidium iodide staining based flow cytometry (reference value: 0.29%); type: functional
[15] = system: MV4-11; assay: Antitumour activity against human MV4-11 cells xenografted in NOD/SCID mouse assessed as tumour growth inhibition at 10 mg/kg, po qd for 18 days measured on day 24 by caliper method; type: functional, organism-based
[16] = system: RS4-11; assay: Antiproliferative activity against human RS4:11 cells harboring wild-type FLT3 measured after 72 hrs by MTT assay; type: functional, cell-based; settings: RS4-11, 72 h
[17] = system: MV4-11; assay: Induction of apoptosis in human MV4-11 cells assessed as early apoptotic cells at 1 nM after 48 hrs by Annexin V/propidium iodide staining based flow cytometry (reference value: 2.76%); type: functional
[18] = system: MV4-11; assay: Induction of apoptosis in human MV4-11 cells assessed as early apoptotic cells at 100 nM after 48 hrs by Annexin V/propidium iodide staining based flow cytometry (reference value: 2.76%); type: functional
[19] = system: MV4-11; assay: Induction of apoptosis in human MV4-11 cells assessed as late apoptotic cells at 10 nM after 48 hrs by Annexin V/propidium iodide staining based flow cytometry (reference value: 2.83%); type: functional
[20] = system: MV4-11; assay: Induction of apoptosis in human MV4-11 cells assessed as necrotic cells at 100 nM after 48 hrs by Annexin V/propidium iodide staining based flow cytometry (reference value: 0.06%); type: functional
[21] = system: MV4-11; assay: Cell cycle arrest in human MV4-11 cells assessed as accumulation at G0/G1 phase at 1 nM after 24 hrs by propidium iodide staining-based flow cytometric analysis (reference value: 48.76%); type: functional
[22] = molecular target: Receptor-type tyrosine-protein kinase FLT3 (Homo sapiens) (UniProt P36888); assay: Inhibition of FLT3 autophosphorylation in human MOLM13 cells assessed as ratio of phosphorylated FLT3 to beta-actin level at 30 nM after 2 hrs by Western blot analysis relative to control; type: cell-based
[23] = molecular target: Receptor-type tyrosine-protein kinase FLT3 (Homo sapiens, UniProt P36888, R834Q); assay: Binding affinity to human partial length FLT3 R834Q mutant (V592 to Y969 residues) expressed in HEK293 cells measured after 1 hr by qPCR analysis; type: cell-based
[24] = Elimination half-life in Sprague-Dawley rat at 5 mg/kg, po by LC-MS/MS analysis; type: ADME, organism-based; settings: in vivo, read-out: beta t1/2 (converted)
[25] = system: MV4-11; assay: Induction of apoptosis in human MV4-11 cells assessed as viable cells at 100 nM after 48 hrs by Annexin V/propidium iodide staining based flow cytometry (reference value: 94.4%); type: functional; settings: MV4-11, 48 h, read-out: Activity
[26] = system: MV4-11; assay: Induction of apoptosis in human MV4-11 cells assessed as necrotic cells at 10 uM after 48 hrs by Annexin V/propidium iodide staining based flow cytometry (reference value: 0.06%); type: functional
[27] = system: MOLM-13; assay: Induction of apoptosis in human MOLM13 cells assessed as necrotic cells at 1 nM after 48 hrs by Annexin V/propidium iodide staining based flow cytometry (reference value: 0.29%); type: functional
[28] = molecular target: Receptor-type tyrosine-protein kinase FLT3 (Homo sapiens, UniProt P36888, N841I); assay: Binding affinity to human partial length FLT3 N841I mutant (V592 to Y969 residues) expressed in Escherichia coli after 1 hr by qPCR analysis
[29] = system: MV4-11; assay: Cell cycle arrest in human MV4-11 cells assessed as accumulation at G2/M phase at 3 nM after 24 hrs by propidium iodide staining-based flow cytometric analysis (reference value: 21.12%); type: functional
[30] = system: MOLM-13; assay: Cell cycle arrest in human MOLM13 cells assessed as accumulation at G0/G1 phase at 3 nM after 24 hrs by propidium iodide staining-based flow cytometric analysis (reference value: 44.53%); type: functional
[31] = system: MV4-11; assay: Induction of apoptosis in human MV4-11 cells assessed as necrotic cells at 1 uM after 48 hrs by Annexin V/propidium iodide staining based flow cytometry (reference value: 0.06%); type: functional
[32] = system: MV4-11; assay: Antitumour activity against human MV4-11 cells xenografted in NOD/SCID mouse assessed as tumour growth inhibition at 3 mg/kg, po qd for 14 days measured every two days during compound dosing by caliper method relative to control; type: functional; settings: MV4-11, po, read-out: TGI

Kd [1]: 0.0205 µM | fold change (FC) [4]: 0 | CL/F [5]: 20.3 mL/min/kg | Kd [6]: 0.00248 µM | fold change (FC) [11]: 0 | fold change (FC) [12]: 0 | IC50 [16]: > 1 µM | fold change (FC) [22]: 0 | Kd [23]: 0.0102 µM | half-life [24]: 2.06 h | Kd [28]: 0.00237 µM
Compound: C=CCn1cc(-c2ccc(NC(=O)Nc3cc(C(C)(C)C)on3)cc2)c2c(N)ncnc21
Activity [2]: Non-Toxic | Activity [3]: 15.5% | Activity [7]: 1.96% | viability at 1 µM [8]: 29% | Activity [9]: 94.68% | fold change (FC) [10]: 0 | Activity [13]: 0.13% | Activity [14]: 0.62% | TGI [15]: inactive | Activity [17]: 2.56% | Activity [18]: 11.3% | Activity [19]: 11% | Activity [20]: 0.36% | Activity [21]: 50.94% | viability at 0.1 µM [25]: 75.7% | Activity [26]: 2.13% | Activity [27]: 0.76% | Activity [29]: 4.08% | Activity [30]: 83.62% | Activity [31]: 0.32% | inhibition in vivo at 3 mg/kg [32]: 98.2%
